Assay [1] has as its target purified human Factor XIa (Homo sapiens (Human), UniProt P03951). The assay is described as follows: biochemical. In kind it is biochemical. Particulars: read-out: Factor XIa Ki.
For assay [2], the target named is purified human plasma kallikrein (Homo sapiens (Human), UniProt P03952). The assay is described as follows: biochemical. Type of assay: biochemical. The following applies: read-out: Plasma Kallikrein Ki.

Structures can show the parent of a compound that is named as a salt.

Chain of purified human plasma kallikrein (P03952 whole entry, looked up): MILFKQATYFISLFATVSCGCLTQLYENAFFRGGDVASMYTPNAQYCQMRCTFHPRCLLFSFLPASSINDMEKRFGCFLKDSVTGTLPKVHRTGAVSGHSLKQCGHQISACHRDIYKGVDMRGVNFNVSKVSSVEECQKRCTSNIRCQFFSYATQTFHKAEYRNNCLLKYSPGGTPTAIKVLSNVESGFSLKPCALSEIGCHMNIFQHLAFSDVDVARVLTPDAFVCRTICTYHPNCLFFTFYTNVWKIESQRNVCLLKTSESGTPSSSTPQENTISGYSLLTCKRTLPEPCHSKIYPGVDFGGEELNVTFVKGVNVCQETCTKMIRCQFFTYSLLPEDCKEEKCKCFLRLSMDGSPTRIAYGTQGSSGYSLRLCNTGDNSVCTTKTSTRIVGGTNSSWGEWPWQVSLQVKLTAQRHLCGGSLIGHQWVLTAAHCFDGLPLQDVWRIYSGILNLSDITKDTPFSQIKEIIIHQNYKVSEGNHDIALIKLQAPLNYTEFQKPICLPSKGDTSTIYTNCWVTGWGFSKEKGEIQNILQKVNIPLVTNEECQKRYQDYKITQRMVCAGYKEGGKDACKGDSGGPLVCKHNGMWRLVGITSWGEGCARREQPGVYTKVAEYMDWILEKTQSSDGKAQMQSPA
Chain of purified human plasma kallikrein (P03952 whole entry partner, looked up): as the sequence (P03952 whole entry, looked up) above
Chain of purified human Factor XIa (P03951 whole entry, looked up): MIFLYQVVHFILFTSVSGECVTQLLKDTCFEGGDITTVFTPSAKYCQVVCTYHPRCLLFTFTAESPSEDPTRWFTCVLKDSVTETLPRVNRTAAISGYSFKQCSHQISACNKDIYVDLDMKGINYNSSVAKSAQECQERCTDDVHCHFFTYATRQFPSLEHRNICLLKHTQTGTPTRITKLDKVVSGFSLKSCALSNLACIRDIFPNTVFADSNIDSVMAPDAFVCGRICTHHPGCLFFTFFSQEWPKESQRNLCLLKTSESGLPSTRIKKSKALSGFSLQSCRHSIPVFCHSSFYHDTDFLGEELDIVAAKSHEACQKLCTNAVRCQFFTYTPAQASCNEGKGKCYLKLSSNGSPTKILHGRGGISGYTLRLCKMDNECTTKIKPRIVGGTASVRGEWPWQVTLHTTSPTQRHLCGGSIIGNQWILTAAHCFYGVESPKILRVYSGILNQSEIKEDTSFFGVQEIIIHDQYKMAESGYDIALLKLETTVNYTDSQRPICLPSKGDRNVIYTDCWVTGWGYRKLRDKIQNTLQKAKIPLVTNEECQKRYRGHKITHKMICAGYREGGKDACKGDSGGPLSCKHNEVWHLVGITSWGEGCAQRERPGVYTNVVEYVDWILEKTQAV
Chain of purified human Factor XIa (P03951 whole entry partner, looked up): as the sequence (P03951 whole entry, looked up) above

As usually defined, the Ki is a measure of affinity in units of concentration, obtained from inhibition or displacement. `C[C@@H]1CCC[C@H](N2CCC(c3c(F)ccc(Cl)c3F)=CC2=O)c2cc(ccn2)-c2ccc(Nc3ccncc3)cc2NC1=O` [Example 89, (10R,14S)-14-[4-(3-Chloro-2,6-difluorophenyl)-6-oxo-1,2,3,6-tetrahydropyridin-1-yl]-10-methyl-5-[(pyridin-4-yl)amino]-8,16-diazatricyclo[13.3.1.0^2,7]nonadeca-1(19),2(7),3,5,15,17-hexaen-9-one, 2 TFA salt]: the results for the Ki in assay [1] and in assay [2] were 2.43 nM and 5 nM, respectively.

Consider `C[C@@H]1CCC[C@H](N2CCC(c3c(F)ccc(Cl)c3F)=CC2=O)c2cc(ccn2)-c2ccc(Nc3ccncn3)cc2NC1=O` [Example 90, (10R,14S)-14-[4-(3-Chloro-2,6-difluorophenyl)-6-oxo-1,2,3,6-tetrahydropyridin-1-yl]-10-methyl-5-[(pyrimidin-4-yl)amino]-8,16-diazatricyclo[13.3.1.0^2,7]nonadeca-1(19),2(7),3,5,15,17-hexaen-9-one, 2 TFA salt], for which the Ki in assay [1] is 1.81 nM; in assay [2] it was 4 nM.

With `C[C@@H]1CCC[C@H](N2CCC(c3c(F)ccc(Cl)c3F)=CC2=O)c2cc(ccn2)-c2ccc(Nc3cnccn3)cc2NC1=O` [Example 93, (10R,14S)-14-[4-(3-Chloro-2,6-difluorophenyl)-6-oxo-1,2,3,6-tetrahydropyridin-1-yl]-10-methyl-5-[(pyrazin-2-yl)amino]-8,16-diazatricyclo[13.3.1.0^2,7]nonadeca-1(19),2(7),3,5,15,17-hexaen-9-one, 2 TFA salt], the Ki in assay [1] came to 1.4 nM; in assay [2] it was 3 nM.

With `CC(C)[C@@H]1CCC[C@H](N2CCC(c3c(F)ccc(Cl)c3F)=CC2=O)c2cc(ccn2)-c2ccccc2NC1=O` [Example 95, (10S,14S)-14-[4-(3-chloro-2,6-difluorophenyl)-6-oxo-1,2,3,6-tetrahydropyridin-1-yl]-10-(propan-2-yl)-8,16-diazatricyclo[13.3.1.0^2,7]nonadeca-1(18),2,4,6,15(19),16-hexaen-9-one, TFA salt], the Ki in assay [1] was determined as 46.5 nM; in assay [2] it was 107 nM.

In the case of `CC(C)[C@H]1CCC[C@H](N2CCC(c3c(F)ccc(Cl)c3F)=CC2=O)c2cc(ccn2)-c2ccccc2NC1=O` [Example 96, (10R,14S)-14-[4-(3-chloro-2,6-difluorophenyl)-6-oxo-1,2,3,6-tetrahydropyridin-1-yl]-10-(propan-2-yl)-8,16-diazatricyclo[13.3.1.0^2,7]nonadeca-1(18),2,4,6,15(19),16-hexaen-9-one, TFA salt], the Ki in assay [1] was above 422 nM; in assay [2], 1970 nM.

With `COC(=O)Nc1ccc2c(c1)NC(=O)[C@H](C)CCC[C@H](N1CCC(C3CCCCC3)=CC1=O)c1cc-2ccn1` [Example 98, Methyl N-[(10R,14S)-14-(4-cyclohexyl-6-oxo-1,2,3,6-tetrahydropyridin-1-yl)-10-methyl-9-oxo-8,16-diazatricyclo[13.3.1.0^2,7]nonadeca-1(19),2,4,6,15,17-hexaen-5-yl]carbamate, TFA salt], the figures for the inhibition constant Ki in assay [1] and in assay [2] were 30.1 nM and 36 nM, respectively.

For the compound `COC(=O)Nc1ccc2c(c1)NC(=O)[C@H](C)CCC[C@H](N1CCC(c3cncc(Cl)c3)=CC1=O)c1cc-2ccn1` [Example 99, Methyl N-[(10R,14S)-14-[4-(5-chloropyridin-3-yl)-6-oxo-1,2,3,6-tetrahydropyridin-1-yl]-10-methyl-9-oxo-8,16-diazatricyclo[13.3.1.0^2,7]nonadeca-1(19),2,4,6,15,17-hexaen-5-yl]carbamate, his TFA salt], the Ki came to 126 nM in assay [1] and 2400 nM in assay [2].

As for `CC1CCC[C@H](N2CCC(c3c(F)ccc(Cl)c3F)=CC2=O)c2cc(ccn2)-c2ccc(C(=O)O)cc2NC1=O` (stereo partly drawn) [Example 105, (14S)-14-[4-(3-Chloro-2,6-difluorophenyl)-6-oxo-1,2,3,6-tetrahydropyridin-1-yl]-10-methyl-9-oxo-8,16-diazatricyclo[13.3.1.0^2,7]nonadeca-1(18),2,4,6,15(19),16-hexaene-5-carboxylic acid, TFA salt], the Ki in assay [1] is above 342 nM; in assay [2], 3920 nM.

As to `CC1CCC[C@H](N2CCC(c3c(C(F)(F)F)ccc(Cl)c3F)=CC2=O)c2cc(ccn2)-c2ccc(C(=O)O)cc2NC1=O` (stereo partly drawn) [Example 106, (14S)-14-{4-[3-Chloro-2-fluoro-6-(trifluoromethyl)phenyl]-6-oxo-1,2,3,6-tetrahydropyridin-1-yl}-10-methyl-9-oxo-8,16-diazatricyclo[13.3.1.0^2,7]nonadeca-1(18),2,4,6,15(19),16-hexaene-5-carboxylic acid, TFA salt], the values for the inhibition constant (Ki) in assay [1] and in assay [2] were above 342 nM and 890 nM, respectively.

For the compound `CC1CCC[C@H](N2CCC(c3c(F)ccc(Cl)c3F)=CC2=O)c2cc(ccn2)-c2ccc(C(N)=O)cc2NC1=O` (stereo partly drawn) [Example 107, (14S)-14-[4-(3-Chloro-2,6-difluorophenyl)-6-oxo-1,2,3,6-tetrahydropyridin-1-yl]-10-methyl-9-oxo-8,16-diazatricyclo[13.3.1.0^2,7]nonadeca-1(18),2,4,6,15(19),16-hexaene-5-carboxamide, TFA salt], the results for the Ki in assay [1] and in assay [2] were 17.4 nM and 88 nM, respectively.

For the compound `CC1CCC[C@H](N2CCC(c3c(C(F)(F)F)ccc(Cl)c3F)=CC2=O)c2cc(ccn2)-c2ccc(C(N)=O)cc2NC1=O` (stereo partly drawn) [Example 108, (14S)-14-{4-[3-Chloro-2-fluoro-6-(trifluoromethyl)phenyl]-6-oxo-1,2,3,6-tetrahydropyridin-1-yl}-10-methyl-9-oxo-8,16-diazatricyclo[13.3.1.0^2,7]nonadeca-1(18),2,4,6,15(19),16-hexaene-5-carboxamide, TFA salt], the Ki in assay [1] is 8.13 nM; in assay [2], 29 nM.

For the compound `COC(=O)Nc1ccc2c(c1)NC(=O)[C@H](C)CCC[C@H](N1CCC(c3cc(Cl)ccc3C)=CC1=O)c1cc-2ccn1` [Example 110, Methyl N-[(10R,14S)-14-[4-(5-chloro-2-methylphenyl)-6-oxo-1,2,3,6-tetrahydropyridin-1-yl]-10-methyl-9-oxo-8,16-diazatricyclo[13.3.1.0^2,7]nonadeca-1(18),2,4,6,15(19),16-hexaen-5-yl]carbamate], the inhibitory constant (Ki) came to 0.62 nM in assay [1] and 3.91 nM in assay [2].

For the compound `COC(=O)Nc1ccc2c(c1)NC(=O)[C@H](C)CCC[C@H](N1CCC(c3c(F)ccc(C)c3F)=CC1=O)c1cc-2ccn1` [Example 111, Methyl N-[(10R,14S)-14-[4-(2,6-difluoro-3-methylphenyl)-6-oxo-1,2,3,6-tetrahydropyridin-1-yl]-10-methyl-9-oxo-8,16-diazatricyclo[13.3.1.0^2,7]nonadeca-1(18),2,4,6,15(19),16-hexaen-5-yl]carbamate], the Ki in assay [1] was determined as 1.42 nM; in assay [2], 3.25 nM.

Take `COC(=O)Nc1ccc2c(c1)NC(=O)[C@H](C)CCC[C@H](N1CCC(c3cc(C)ccc3F)=CC1=O)c1cc-2ccn1` [Example 113, Methyl N-[(10R,14S)-14-[4-(2-fluoro-5-methylphenyl)-6-oxo-1,2,3,6-tetrahydropyridin-1-yl]-10-methyl-9-oxo-8,16-diazatricyclo[13.3.1.0^2,7]nonadeca-1(18),2,4,6,15(19),16-hexaen-5-yl]carbamate]: the values for the Ki in assay [1] and in assay [2] were 7.24 nM and 15.6 nM, respectively.

Take `COC(=O)Nc1ccc2c(c1)NC(=O)[C@H](C)CCC[C@H](N1CCC(c3cccc(C)c3C)=CC1=O)c1cc-2ccn1` [Example 114, Methyl-N-[(10R,14S)-14-[4-(2,3-dimethylphenyl)-6-oxo-1,2,3,6-tetrahydropyridin-1-yl]-10-methyl-9-oxo-8,16-diazatricyclo[13.3.1.0^2,7]nonadeca-1(18),2,4,6,15(19),16-hexaen-5-yl]carbamate]: the Ki in assay [1] turned out to be 108 nM; in assay [2], 143 nM.

On to `COC(=O)Nc1ccc2c(c1)NC(=O)[C@H](C)CCC[C@H](N1CCC(c3ccccc3OC)=CC1=O)c1cc-2ccn1` [Example 116, Methyl N-[(10R,14S)-14-[4-(2-methoxyphenyl)-6-oxo-1,2,3,6-tetrahydropyridin-1-yl]-10-methyl-9-oxo-8,16-diazatricyclo[13.3.1.0^2,7]nonadeca-1(18),2,4,6,15(19),16-hexaen-5-yl]carbamate], for which the values for the inhibitory constant (Ki) in assay [1] and in assay [2] were 267 nM and 739 nM, respectively.

With `COC(=O)Nc1ccc2c(c1)NC(=O)[C@H](C)CCC[C@H](N1CCC(c3ccc(OC)cc3)=CC1=O)c1cc-2ccn1` [Example 117, Methyl N-[(10R,14S)-14-[4-(4-methoxyphenyl)-6-oxo-1,2,3,6-tetrahydropyridin-1-yl]-10-methyl-9-oxo-8,16-diazatricyclo[13.3.1.0^2,7]nonadeca-1(18),2,4,6,15(19),16-hexaen-5-yl]carbamate], the Ki is above 398 nM in assay [1] and above 13000 nM in assay [2].

Consider `COC(=O)Nc1ccc2c(c1)NC(=O)[C@H](C)CCC[C@H](N1CCC(c3cccc(Cl)c3OC)=CC1=O)c1cc-2ccn1` [Example 118, Methyl N-[(10R,14S)-14-[4-(3-chloro-2-methoxyphenyl)-6-oxo-1,2,3,6-tetrahydropyridin-1-yl]-10-methyl-9-oxo-8,16-diazatricyclo[13.3.1.0^2,7]nonadeca-1(18),2,4,6,15(19),16-hexaen-5-yl]carbamate], for which the inhibitory constant (Ki) in assay [1] is above 404 nM; in assay [2], 2030 nM.

Consider `COC(=O)Nc1ccc2c(c1)NC(=O)C(C)(O)CCC[C@H](N1CCC(c3c(F)ccc(Cl)c3F)=CC1=O)c1cc-2ccn1` (stereo partly drawn) [Example 123, Methyl N-[(14S)-14-[4-(3-chloro-2,6-difluorophenyl)-6-oxo-1,2,3,6-tetrahydropyridin-1-yl]-10-hydroxy-10-methyl-9-oxo-8,16-diazatricyclo[13.3.1.0^2,7]nonadeca-1(19),2,4,6,15,17-hexaen-5-yl]carbamate, TFA salt], for which the Ki in assay [1] worked out at 20.1 nM; in assay [2], 26.1 nM.

For the origin of these results see patent US9409908B2 (priority 2012, dated 2016).
